Experimental data taken from PMC12550625, “A Potent Oral Sialylation Inhibitor Augments the Immunotherapy in Pancreatic Ductal Adenocarcinoma” (ACS Central Science, 2025).

Experiments:
ST3Gal1 = molecular target: T1, ST3Gal1 (Sus scrofa, UniProt Q02745); test: SPR (CM5 chip, immobilized purified ST3Gal1); assay type: binding
T1 construct: Δ45, N-terminal 6xHis-MBP fusion
T1 sequence (Q02745 46-343): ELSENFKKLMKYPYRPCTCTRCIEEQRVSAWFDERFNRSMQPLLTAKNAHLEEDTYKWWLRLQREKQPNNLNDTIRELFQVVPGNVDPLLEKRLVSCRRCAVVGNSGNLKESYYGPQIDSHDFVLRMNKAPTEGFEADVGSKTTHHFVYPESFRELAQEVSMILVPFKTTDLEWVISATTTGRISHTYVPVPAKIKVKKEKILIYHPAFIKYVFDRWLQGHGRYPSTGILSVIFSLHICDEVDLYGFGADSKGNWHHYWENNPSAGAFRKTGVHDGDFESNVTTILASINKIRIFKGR

ST6Gal1 = molecular target: T2, ST6Gal1 (Homo sapiens, UniProt P15907); test: SPR (CM5 chip, immobilized purified ST6Gal1); assay type: binding
T2 construct: Δ131, 3xFLAG
T2 sequence (P15907 132-406): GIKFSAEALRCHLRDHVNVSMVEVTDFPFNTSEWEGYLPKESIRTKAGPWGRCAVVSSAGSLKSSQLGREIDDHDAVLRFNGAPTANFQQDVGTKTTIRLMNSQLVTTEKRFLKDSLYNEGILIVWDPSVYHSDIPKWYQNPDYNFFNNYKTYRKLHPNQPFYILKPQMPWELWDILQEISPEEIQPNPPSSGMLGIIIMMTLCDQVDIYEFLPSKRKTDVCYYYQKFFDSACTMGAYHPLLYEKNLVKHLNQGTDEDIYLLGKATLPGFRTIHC
Description: SPR (CM5 chip, immobilized purified ST6Gal1) on ST6Gal1 | Pull-down and SPR analyses confirmed that Y-320 binds to ST6Gal1 with high affinity

- Kd (ST3Gal1): 709 nM
- Kd (ST6Gal1): 885 nM
Compound: Cc1c(C(=O)Nc2ccc(N3CCC(N4CCOCC4)CC3)c(C#N)c2)cnn1-c1ccc(Cl)cc1 [Y-320]
